According to patent US8741932B2, “Imidazopyridine derivatives” (Piramal Enterprises Limited, priority 2009, dated 2014):

Tests used:
A549 = experiment: Cytotoxicity assay (propidium iodide), A549; format: cell-based; settings: Homo sapiens; A549 (C1a, lung); 48 hours
MDA MB 468 = experiment: Cytotoxicity assay (propidium iodide), MDA MB 468; format: cell-based; settings: Homo sapiens; MDA MB 468 (C6b, breast); 48 hours
Description: (§4) Cells from cell lines as mentioned in the table given below were seeded at a density of 3000 cells/well in a white opaque 96-well plate. Following incubation at 37° C./5% CO2 for a period of 18-24 hours, the cells were treated with various concentrations (stock solution was prepared in DMSO and subsequent dilutions were made in media as per ATCC guidelines) of the representative compounds of present invention (refer table 3) for a period of 48 hours. At the end of treatment, the spent culture medium was discarded, the cells were washed with 1×PBS and 200 μl of 7 μg/ml propidium iodide was added to each well. The plates were frozen at −70° C. for at least 24 hours. For analysis, the plates were brought to RT, allowed to thaw and were read in PolarStar fluorimeter with the fluorescence setting. The percentage of viable cells in the non treated set of wells was considered to be 100 and the percentage viability following treatment was calculated accordingly. IC50 values were calculated from graphs plotted using these percentages.

PI3Kα kinase = biological target: T1, PI3Kα kinase (Homo sapiens, UniProt P42336); experiment: Kinase assay (PI3Kα); format: biochemical; settings: read-out: IC50 (μM) for PI3K inhibition
T1 construct: purchased Millipore, USA
T1 sequence (P42336 whole entry): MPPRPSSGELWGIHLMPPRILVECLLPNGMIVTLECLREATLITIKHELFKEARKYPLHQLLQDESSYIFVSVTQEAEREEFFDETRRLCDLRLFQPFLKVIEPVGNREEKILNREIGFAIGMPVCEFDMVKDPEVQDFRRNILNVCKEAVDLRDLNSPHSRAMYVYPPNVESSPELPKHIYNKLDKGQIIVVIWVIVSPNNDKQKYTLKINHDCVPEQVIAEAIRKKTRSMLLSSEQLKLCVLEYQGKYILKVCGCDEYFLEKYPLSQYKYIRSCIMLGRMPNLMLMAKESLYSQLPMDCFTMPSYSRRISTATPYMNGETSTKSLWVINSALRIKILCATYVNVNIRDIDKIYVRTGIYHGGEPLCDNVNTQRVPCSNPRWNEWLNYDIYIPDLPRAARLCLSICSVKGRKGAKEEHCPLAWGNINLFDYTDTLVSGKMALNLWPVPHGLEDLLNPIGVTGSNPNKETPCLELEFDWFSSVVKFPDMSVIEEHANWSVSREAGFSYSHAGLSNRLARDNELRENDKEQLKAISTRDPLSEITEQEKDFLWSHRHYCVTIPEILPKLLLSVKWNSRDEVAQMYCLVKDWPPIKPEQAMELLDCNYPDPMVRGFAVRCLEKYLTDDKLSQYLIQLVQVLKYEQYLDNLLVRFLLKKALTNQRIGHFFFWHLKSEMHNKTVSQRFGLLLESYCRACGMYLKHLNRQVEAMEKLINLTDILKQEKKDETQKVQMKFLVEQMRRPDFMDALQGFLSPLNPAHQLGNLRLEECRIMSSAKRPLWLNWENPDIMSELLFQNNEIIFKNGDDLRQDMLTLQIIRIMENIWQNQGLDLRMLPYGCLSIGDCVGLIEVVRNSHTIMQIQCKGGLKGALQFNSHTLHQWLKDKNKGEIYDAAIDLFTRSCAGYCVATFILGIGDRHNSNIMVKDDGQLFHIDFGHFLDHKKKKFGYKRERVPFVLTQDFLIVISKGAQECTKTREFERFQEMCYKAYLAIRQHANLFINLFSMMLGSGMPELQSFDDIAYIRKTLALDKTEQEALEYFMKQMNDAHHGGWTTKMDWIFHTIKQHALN
T1 sequence (P27986 whole entry partner): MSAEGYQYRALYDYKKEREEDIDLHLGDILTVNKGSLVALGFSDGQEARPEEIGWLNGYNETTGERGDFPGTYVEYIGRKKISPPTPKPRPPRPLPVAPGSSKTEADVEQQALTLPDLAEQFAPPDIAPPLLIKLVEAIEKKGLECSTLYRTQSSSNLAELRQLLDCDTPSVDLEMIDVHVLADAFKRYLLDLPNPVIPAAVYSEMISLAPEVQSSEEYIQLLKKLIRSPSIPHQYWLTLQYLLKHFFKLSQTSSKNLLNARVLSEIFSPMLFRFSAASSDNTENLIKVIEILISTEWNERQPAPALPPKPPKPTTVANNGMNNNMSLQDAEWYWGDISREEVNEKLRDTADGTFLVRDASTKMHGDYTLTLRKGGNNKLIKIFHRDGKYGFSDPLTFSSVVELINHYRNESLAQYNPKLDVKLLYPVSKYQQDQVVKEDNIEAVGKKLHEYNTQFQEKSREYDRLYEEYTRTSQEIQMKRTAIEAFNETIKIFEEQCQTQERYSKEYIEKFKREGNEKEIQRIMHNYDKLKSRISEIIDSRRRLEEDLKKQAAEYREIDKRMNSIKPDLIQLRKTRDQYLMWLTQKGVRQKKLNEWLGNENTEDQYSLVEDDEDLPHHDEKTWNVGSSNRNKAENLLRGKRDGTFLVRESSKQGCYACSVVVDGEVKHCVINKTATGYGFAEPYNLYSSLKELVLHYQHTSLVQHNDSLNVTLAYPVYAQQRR
Outline: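 Recombinant PI3Kα (20 ng) phosphorylated 12.5 μg phosphatidylinositol with 10 μM ATP and 1 μCi ^32γ P […] in 10 mM Hepes pH 7.5, 50 mM MgCl2 for 20 min at 30° C. Lipids were extracted with MeOH/CHCl3, resolved by TLC, and labelled PI quantified by autoradiography densitometry; PI-103 served as standard.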

MCF7 = experiment: Cytotoxicity assay (propidium iodide), MCF7; format: cell-based; settings: Homo sapiens; MCF7 (C6c, breast); 48 hours
Description: as §4

G361 = experiment: Cytotoxicity assay (propidium iodide), G361; format: cell-based; settings: G-361; G361 (C9a, human melanoma); 48 hours
Description: as §4

PC3 = experiment: Cytotoxicity assay (propidium iodide), PC3; settings: Homo sapiens, PC-3, 48 h, read-out: IC50 cytotoxicity
Description: as §4

mTOR = biological target: T2, mTOR (Homo sapiens, UniProt P42345); experiment: mTOR activity assay (cell ELISA, Phospho-AKT Ser 473, A2780 cells); format: cell-based; settings: for inhibition at 1 µM: read-out: % Inhibition of mTOR activity at 1 μM
T2 construct: endogenous in cells; host or cells: A2780 ovarian cell line (ATCC)
Description: Seed cells (Ovarian cell line A2780, ATCC) were plated in a 96 well microtitre plate at a density of 50,000 cells/cm^2 in appropriate complete cell culture medium. The cells were allowed to adhere for 18-24 hours. The cells were allowed to starve for 24 hours. […] Then the cells were stimulated with 20% FCS for 30 minutes. A typical assay would consist of a set of unstimulated cells, a set of stimulated cells and a set of cells treated with compounds of present invention and a set of cells treated with the stimulator. The medium was discarded. The cells were fixed with 100 μL of 3.7% formaldehyde for 15 minutes. The formaldehyde was discarded by inverting the plate and tapping it on a thick tissue paper layer to remove traces. The cells were washed and permeabilized with 200 μL PBS+Triton-X 100 solution (hereafter referred to as PBS-Triton, containing 0.1% triton-X 100 in 1×PBS) three times, incubating the cells each time for 5 minutes. 100 μL blocking solution (10% FCS in PBS-Triton) was added and incubated for 1 hour at 25° C. The blocking solution was discarded and cells were incubated with the primary antibody in PBS-Triton at a dilution of 1:500 for 1 hour at RT (25° C.). [The primary antibody is Phospho-AKT (Ser 473); Cell Signaling; Cat. No. 9271]. The primary antibody solution was discarded and the cells were washed 3 times with PBS-Triton solution and incubated with the HRP-conjugated secondary antibody in PBS-Triton at a dilution of 1:500 for 1 hour at RT (25° C.). The cells were washed 3 times with PBS-Triton followed by two washes with PBS (to remove traces of triton-X 100). The OPD (o-phenylene diamine dihydrochloride) substrate was prepared for detection of the signal by dissolving one tablet set (two tablets) of SigmaFast OPD (Sigma, Cat No. P9187) in 20 mL distilled water. It should be protected from light. 100 μL OPD solutions was added to the wells and the plate was incubated in the dark for 3-5 minutes (depending upon the development of the color). The reaction was stopped by adding 50 μL 2 N H2SO4. The absorbance was measured at 490 nm. The values were expressed in the treated samples, in terms of percentage or fold decrease in AKT phosphorylation with respect to the induced sample. PI-103 (Calbiochem, USA) was used as a standard.

H460 = experiment: Cytotoxicity assay (propidium iodide), H460; format: cell-based; settings: Homo sapiens, NCI-H460; H460 (C1b, lung); 48 hours
Description: as §4

A2780 = experiment: Cytotoxicity assay (propidium iodide), A2780; format: cell-based; settings: Homo sapiens; A2780 (C3a, ovarian); 48 hours
BT 549 = experiment: Cytotoxicity assay (propidium iodide), BT 549; format: cell-based; settings: Homo sapiens; BT 549 (C6d, breast); 48 hours
Description: as §4

TNF-α = experiment: Synovial tissue assay, TNF-α; format: cell-based; settings: Homo sapiens; synovial tissue cells from rheumatoid arthritis patients, 16 hours
Description: (§1) The assay was designed as in the reference, Lancet, 2(8657), 244-7, Jul.
(§2) Stock Solution: Compounds of the present invention were dissolved in DMSO to obtain a stock solution of 20 mM.
(§3) Synovial tissue was obtained from rheumatoid arthritis patients undergoing knee replacement surgery. The tissue was minced into small pieces and digested in RPMI medium containing 100 U/ml penicillin-G, 100 μg/ml streptomycin, 50 ng/ml amphotericin B (GIBCO; USA), 1.33 mg/ml collagenase Type I (Worthington Biochemical Corporation, New Jersey), 0.5 μg/ml DNAse Type I (Sigma Aldrich; St. Louis, Mo.) and 8.33 U/ml heparin (Biological E. Limited, India) for 3 hours at 37° C., 5% CO2. The digested tissue was filtered through a membrane (mesh size 70 micron; Sigma Aldrich). Subsequently, the cells were washed 3 times and resuspended in complete medium (RPMI supplemented with 5% FBS and 5% human serum-AB+) at a concentration of 1×10^6 cells/ml. All cell washes in this assay were performed using Rosewall Park Memorial Institute (RPMI)-1640 medium (JRH; Australia). For the experiment, 100 μl of cell suspension was added to the wells of a 96-well culture plate. Following cell plating, 100 μl of the culture medium and 1 μl of various concentrations (0.01, 0.03, 0.1, 0.3, 1, 3, 10, 30 and 100 μM) of the compounds of present invention dissolved in DMSO were added to the cells. The final concentration of DMSO was adjusted to 0.5%. For experimental purposes, 1 μl of […] concentrated solution of the compounds of present invention were dissolved in 200 μl cell suspension to achieve a final concentration of 0.01, 0.03, 0.1, 0.3, 1, 3, 10, 30 and 100 μM. The vehicle (0.5% DMSO) was used as control. 10 μM dexamethasone (Sigma Aldrich) or 1 μM 7-hydroxyfluorinide (7HF) were used as standards for the experiments. The plates were incubated for 16 hours at 37° C., 5% CO2. Subsequently, the supernatants were harvested and stored at −70° C. The amounts of TNF-α, IL-6 and interleukin-8 (IL-8) in the supernatants were assayed using OptiEIA ELISA sets, (BD BioSciences Pharmingen). The protocol followed was as per manufacturers instructions. […] The cytotoxicity of test compounds in synovial cells was assessed by MTS assay. Absorbance was measured at 490 nm. Percent cytotoxicity was calculated by the equation: % Cytotoxicity=(A−B)/A×100 where, A is the absorbance of cells treated with DMSO alone and B is the absorbance of cells treated with the test article.

IL-6 [1] = experiment: Synovial tissue assay, IL-6; format: cell-based; settings: Homo sapiens; synovial tissue cells from rheumatoid arthritis patients, 16 hours
Description: as §1, §2, §3

IL-6 [2] = experiment: Human monocyte assay, LPS-stimulated IL-6; format: cell-based; settings: Monocyte; human monocytes, 1 μg/ml LPS, 5 hours
Outline: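 Adherent human PBMC-derived monocytes (2×10^4/well) were cultured 48 h, preincubated 30 min with compound or 0.5% DMSO, then stimulated with 1 μg/ml E. coli LPS for 5 h at 37° C. TNF-α and IL-6 in supernatants were measured by ELISA.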

STAT3 = STAT3 bioassay (Hela Stat3-luc, luciferase); format: cell-based; settings: Homo sapiens, Oncostatin M induction
Outline: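 Hela Stat3-luc cells (20,000/well, 24 h) pretreated with compound 1 h, then induced with 100 ng/ml final Oncostatin M for 7-8 h at 37 °C. Luciferase luminescence after lysis; percent inhibition versus induction control, IC50 from these percentages.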

IL-8 = experiment: Synovial tissue assay, IL-8; format: cell-based; settings: Homo sapiens; synovial tissue cells from rheumatoid arthritis patients, 16 hours
Description: as §1, §2, §3

OVCAR 3 = experiment: Cytotoxicity assay (propidium iodide), OVCAR 3; format: cell-based; settings: Homo sapiens; OVCAR 3 (C3c, ovarian); 48 hours
Description: as §4

SKOV3 = experiment: Cytotoxicity assay (propidium iodide), SKOV3; format: cell-based; settings: Homo sapiens, SK-OV-3; SKOV3 (C3b, ovarian); 48 hours
Description: as §4

CAPAN1 = experiment: Cytotoxicity assay (propidium iodide), CAPAN1; format: cell-based; settings: Homo sapiens, CAPAN-1; CAPAN1 (C5b, pancreatic); 48 hours
Description: as §4

PANC 1 = experiment: Cytotoxicity assay (propidium iodide), PANC 1; format: cell-based; settings: Homo sapiens; PANC 1 (C5a, pancreatic); 48 hours
Description: as §4

MDA MB 231 = experiment: Cytotoxicity assay (propidium iodide), MDA MB 231; format: cell-based; settings: Homo sapiens; MDA MB 231 (C6a, breast); 48 hours
Description: as §4

HT29 = experiment: Cytotoxicity assay (propidium iodide), HT29; format: cell-based; settings: Homo sapiens, HT-29; HT29 (C4a, colon); 48 hours
Description: as §4

Structure (SMILES)	IC50 (A549) [µM]	IC50 (MDA MB 468) [µM]	IC50 (PI3Kα kinase) [µM]	IC50 (MCF7) [µM]	IC50 (G361) [µM]	IC50 (PC3) [µM]	IC50 (H460) [µM]	IC50 (A2780) [µM]	IC50 (IL-6 [2]) [µM]	also measured
CN(N=Cc1cnc2ccc(-c3cccnc3)cn12)S(=O)(=O)c1cccc(Br)c1 [Example 7, 3-Bromo-N-methyl-N′-((6-(pyridine-3-yl)imidazo[1,2-a]pyridine-3-yl)methylene) benzenesulfonohydrazide]	> 5	> 5	0.01 to 0.5	> 5	> 5	> 5	> 5	–	–	inhibition at 1 µM (mTOR): 30 to 50%
CN(N=Cc1cnc2ccc(-c3cccnc3)cn12)S(=O)(=O)c1ccccc1C#N [Example 9, 2-Cyano-N-methyl-N′-((6-(pyridine-3-yl)imidazo[1,2-a]pyridine-3-yl)methylene)benzenesulfonohydrazide]	0.01 to 5	0.01 to 5	–	–	–	0.01 to 5	0.01 to 5	0.01 to 5	0.001 to 5	IC50 (BT 549): 0.01 to 5 µM; IC50 (TNF-α): 0.01 to 0.3 µM; IC50 (IL-6 [1]): 0.01 to 0.3 µM; IC50 (STAT3): 5 to 10 µM; IC50 (IL-8): 0.3 to 3 µM
CN(N=Cc1cnc2ccc(-c3cccnc3)cn12)S(=O)(=O)c1ccc(C#N)cc1 [Example 11, 4-Cyano-N-methyl-N′-((6-(pyridine-3-yl)imidazo[1,2-a]pyridine-3-yl)methylene)benzenesulfonohydrazide]	> 5	> 5	0.01 to 0.5	–	–	> 5	> 5	> 5	≥ 5	IC50 (BT 549): > 5 µM; inhibition at 1 µM (mTOR): 30 to 50%
CN(N=Cc1cnc2ccc(-c3cccnc3)cn12)S(=O)(=O)c1ccc(F)c(Cl)c1 [Example 18, 3-Chloro-4-fluoro-N-methyl-N′-((6-(pyridine-3-yl)imidazo[1,2-a]pyridine-3-yl)methylene) benzenesulfonohydrazide]	> 5	> 5	0.01 to 0.5	> 5	> 5	> 5	> 5	–	–	–
CN(N=Cc1cnc2ccc(-c3cccnc3)cn12)S(=O)(=O)c1c(F)cc(F)cc1Br [Example 26, 2-Bromo-4,6-difluoro-N-methyl-N′-((6-(pyridine-3-yl)imidazo[1,2-a]pyridine-3-yl)methylene) benzenesulfonohydrazide]	0.01 to 5	–	0.01 to 0.5	–	–	–	0.01 to 5	0.01 to 5	0.001 to 5	IC50 (OVCAR 3): 10 to 5000 nM; IC50 (SKOV3): 10 to 5000 nM; IC50 (CAPAN1): 10 to 5000 nM; IC50 (PANC 1): 10 to 5000 nM; IC50 (STAT3): 0.1 to 5 µM; inhibition at 10 µM (mTOR; 10 μM): > 50%
Cc1cc(C)c(S(=O)(=O)N(C)N=Cc2cnc3ccc(-c4cccnc4)cn23)c(C)c1 [Example 27, N, 2,4,6-tetramethyl-N′-((6-(pyridine-3-yl)imidazo[1,2-a]pyridine-3-yl)methylene)benzenesulfonohydrazide]	> 5	> 5	0.01 to 0.5	> 5	> 5	> 5	> 5	–	–	–
CN(N=Cc1cnc2ccc(-c3cccnc3)cn12)S(=O)(=O)C1CCCCC1 [Example 31, N-methyl-N′-((6-(pyridine-3-yl)imidazo[1,2-a]pyridine-3-yl)methylene) cyclohexanesulfonohydrazide]	0.01 to 5	–	–	–	–	0.01 to 5	0.01 to 5	0.01 to 5	–	IC50 (MDA MB 231): 10 to 5000 nM; IC50 (HT29): > 5 µM
Cc1ccc([N+](=O)[O-])cc1S(=O)(=O)N(C)N=Cc1cnc2ccc(-c3ccncc3)cn12 [Example 85, N, 2-dimethyl-5-nitro-N′-((6-(pyridine-4-yl)imidazo[1,2-a]pyridine-3-yl)methylene) benzenesulfonohydrazide]	0.01 to 5	–	–	–	–	0.01 to 5	0.01 to 5	0.01 to 5	–	IC50 (MDA MB 231): 10 to 5000 nM; IC50 (HT29): > 5 µM
